Measured values: ChEMBL document CHEMBL5465560, “Selectivity Literature for EUbOPEN Chemogenomic Library” (2024)

Legend:
[1] = target: Ribosomal protein S6 kinase alpha-6 (Homo sapiens, UniProt Q9UK32); test: Selectivity interaction (KinomeScan (DiscoverX)) EUB0000311b RPS6KA6; settings: at 1 µM
[2] = target: T1, Casein kinase I isoform alpha-like (Homo sapiens) (UniProt Q8N752); test: Selectivity interaction (KinomeScan (DiscoverX)) EUB0000666a CSNK1A1L; settings: at 10 µM
T1 sequence (whole entry): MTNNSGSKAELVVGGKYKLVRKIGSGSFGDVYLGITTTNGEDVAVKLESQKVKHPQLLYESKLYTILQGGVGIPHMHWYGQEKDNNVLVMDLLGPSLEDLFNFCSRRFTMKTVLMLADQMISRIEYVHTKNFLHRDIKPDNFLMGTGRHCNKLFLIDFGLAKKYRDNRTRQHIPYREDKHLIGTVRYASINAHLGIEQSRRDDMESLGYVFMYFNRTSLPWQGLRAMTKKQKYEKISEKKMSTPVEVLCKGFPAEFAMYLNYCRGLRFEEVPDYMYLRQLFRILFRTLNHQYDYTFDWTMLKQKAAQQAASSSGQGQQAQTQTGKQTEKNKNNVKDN

[3] = target: T2, Rhodopsin kinase GRK1 (Homo sapiens) (UniProt Q15835); test: Selectivity interaction (KinomeScan (DiscoverX)) EUB0000666a GRK1; settings: at 10 µM
T2 sequence (whole entry): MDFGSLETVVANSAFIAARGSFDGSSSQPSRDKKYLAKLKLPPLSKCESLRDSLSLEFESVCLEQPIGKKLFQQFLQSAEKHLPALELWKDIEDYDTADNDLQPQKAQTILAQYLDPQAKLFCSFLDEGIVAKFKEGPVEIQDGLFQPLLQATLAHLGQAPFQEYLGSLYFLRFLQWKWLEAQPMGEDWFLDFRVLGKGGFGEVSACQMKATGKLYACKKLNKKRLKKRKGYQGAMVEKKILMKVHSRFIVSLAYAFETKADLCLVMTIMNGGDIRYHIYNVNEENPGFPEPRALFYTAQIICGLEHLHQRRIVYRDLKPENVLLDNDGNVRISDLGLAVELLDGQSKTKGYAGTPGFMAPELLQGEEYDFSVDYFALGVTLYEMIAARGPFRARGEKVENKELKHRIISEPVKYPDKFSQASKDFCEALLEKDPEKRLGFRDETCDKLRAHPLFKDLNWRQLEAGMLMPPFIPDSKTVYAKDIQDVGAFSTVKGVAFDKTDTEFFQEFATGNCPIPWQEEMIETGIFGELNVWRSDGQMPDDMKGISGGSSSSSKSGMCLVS

[4] = target: T3, Phosphatidylinositol 4,5-bisphosphate 3-kinase catalytic subunit delta isoform (Homo sapiens) (UniProt O00329); test: Selectivity interaction (KinomeScan (DiscoverX)) EUB0000666a PIK3CD; settings: at 10 µM
T3 sequence (whole entry): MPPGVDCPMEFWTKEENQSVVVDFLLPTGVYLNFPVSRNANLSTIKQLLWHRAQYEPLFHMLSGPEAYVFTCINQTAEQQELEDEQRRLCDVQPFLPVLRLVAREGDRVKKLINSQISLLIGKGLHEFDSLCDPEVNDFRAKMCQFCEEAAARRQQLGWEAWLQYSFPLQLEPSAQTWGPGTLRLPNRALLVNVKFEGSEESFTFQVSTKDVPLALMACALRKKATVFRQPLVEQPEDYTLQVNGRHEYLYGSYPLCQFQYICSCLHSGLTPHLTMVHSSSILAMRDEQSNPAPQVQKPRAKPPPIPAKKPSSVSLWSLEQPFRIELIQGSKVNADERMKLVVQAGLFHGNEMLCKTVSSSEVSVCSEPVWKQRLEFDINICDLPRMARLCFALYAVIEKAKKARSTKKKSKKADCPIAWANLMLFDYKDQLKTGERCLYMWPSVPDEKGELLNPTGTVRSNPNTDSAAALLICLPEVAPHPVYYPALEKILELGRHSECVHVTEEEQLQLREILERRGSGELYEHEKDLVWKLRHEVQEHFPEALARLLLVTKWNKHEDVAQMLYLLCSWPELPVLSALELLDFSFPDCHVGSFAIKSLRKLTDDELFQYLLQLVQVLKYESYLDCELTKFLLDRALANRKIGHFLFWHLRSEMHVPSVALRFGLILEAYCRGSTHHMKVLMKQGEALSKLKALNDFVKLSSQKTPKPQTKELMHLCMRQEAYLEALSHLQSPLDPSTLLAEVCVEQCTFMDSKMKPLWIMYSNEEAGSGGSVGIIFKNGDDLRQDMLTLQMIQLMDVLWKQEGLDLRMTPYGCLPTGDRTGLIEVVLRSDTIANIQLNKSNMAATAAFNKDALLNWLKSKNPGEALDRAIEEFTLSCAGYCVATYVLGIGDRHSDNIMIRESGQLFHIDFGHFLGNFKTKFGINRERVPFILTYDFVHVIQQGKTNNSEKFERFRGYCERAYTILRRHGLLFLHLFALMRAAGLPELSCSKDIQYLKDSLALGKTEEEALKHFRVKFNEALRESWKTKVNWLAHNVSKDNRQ

[5] = target: Calcium/calmodulin-dependent protein kinase type II subunit delta (Homo sapiens) (UniProt Q13557); test: Selectivity interaction (ActivX KiNativ screen (kinase selectivity in THP-1 cell lysates)) EUB0000639a CAMK2D; type: subcellular; settings: lysate, at 5 µM
[6] = target: Phosphatidylinositol 4-kinase beta (Homo sapiens, UniProt Q9UBF8); test: Selectivity interaction (KinomeScan (DiscoverX)) EUB0000092b PI4KB; settings: at 10 µM
[7] = target: Casein kinase I isoform delta (Homo sapiens, UniProt P48730); test: Selectivity interaction (Ambit KINOMEscan and KiNATiv profiling in Jurkat cells) EUB0000090b CSNK1D; type: cell-based; settings: at 1 µM
[8] = target: AP2-associated protein kinase 1 (Homo sapiens, UniProt Q2M2I8); test: Selectivity interaction (KinomeScan (DiscoverX)) EUB0000045b AAK1
[9] = target: Serine/threonine-protein kinase MRCK alpha (Homo sapiens) (UniProt Q5VT25); test: Selectivity interaction (KinomeScan (DiscoverX)) EUB0000045b CDC42BPA
[10] = target: Calcium/calmodulin-dependent protein kinase type II subunit delta (Homo sapiens) (UniProt Q13557); test: Selectivity interaction (KinomeScan (DiscoverX)) EUB0000618a CAMK2D; settings: at 10 µM
[11] = target: Serine/threonine-protein kinase 32B (Homo sapiens) (UniProt Q9NY57); test: Selectivity interaction (KinomeScan (DiscoverX)) EUB0000618a STK32B; settings: at 10 µM
[12] = target: Serine/threonine-protein kinase PRP4 homolog (Homo sapiens) (UniProt Q13523); settings: at 10 µM
[13] = target: Serine/threonine-protein kinase NIM1 (Homo sapiens, UniProt Q8IY84); test: Selectivity interaction (KinomeScan (DiscoverX)) EUB0000695a NIM1K; settings: at 100 nM
[14] = target: Serine/threonine-protein kinase WNK3 (Homo sapiens) (UniProt Q9BYP7); test: Selectivity interaction (LanthaScreen Eu Kinase Binding Assay) EUB0001632a WNK3; settings: at 10 µM
[15] = target: Ephrin type-A receptor 4 (Homo sapiens, UniProt P54764); test: Selectivity interaction (ProQinase) EUB0000171b EPHA4
Sequence of Ephrin type-A receptor 4 (P54764 whole entry): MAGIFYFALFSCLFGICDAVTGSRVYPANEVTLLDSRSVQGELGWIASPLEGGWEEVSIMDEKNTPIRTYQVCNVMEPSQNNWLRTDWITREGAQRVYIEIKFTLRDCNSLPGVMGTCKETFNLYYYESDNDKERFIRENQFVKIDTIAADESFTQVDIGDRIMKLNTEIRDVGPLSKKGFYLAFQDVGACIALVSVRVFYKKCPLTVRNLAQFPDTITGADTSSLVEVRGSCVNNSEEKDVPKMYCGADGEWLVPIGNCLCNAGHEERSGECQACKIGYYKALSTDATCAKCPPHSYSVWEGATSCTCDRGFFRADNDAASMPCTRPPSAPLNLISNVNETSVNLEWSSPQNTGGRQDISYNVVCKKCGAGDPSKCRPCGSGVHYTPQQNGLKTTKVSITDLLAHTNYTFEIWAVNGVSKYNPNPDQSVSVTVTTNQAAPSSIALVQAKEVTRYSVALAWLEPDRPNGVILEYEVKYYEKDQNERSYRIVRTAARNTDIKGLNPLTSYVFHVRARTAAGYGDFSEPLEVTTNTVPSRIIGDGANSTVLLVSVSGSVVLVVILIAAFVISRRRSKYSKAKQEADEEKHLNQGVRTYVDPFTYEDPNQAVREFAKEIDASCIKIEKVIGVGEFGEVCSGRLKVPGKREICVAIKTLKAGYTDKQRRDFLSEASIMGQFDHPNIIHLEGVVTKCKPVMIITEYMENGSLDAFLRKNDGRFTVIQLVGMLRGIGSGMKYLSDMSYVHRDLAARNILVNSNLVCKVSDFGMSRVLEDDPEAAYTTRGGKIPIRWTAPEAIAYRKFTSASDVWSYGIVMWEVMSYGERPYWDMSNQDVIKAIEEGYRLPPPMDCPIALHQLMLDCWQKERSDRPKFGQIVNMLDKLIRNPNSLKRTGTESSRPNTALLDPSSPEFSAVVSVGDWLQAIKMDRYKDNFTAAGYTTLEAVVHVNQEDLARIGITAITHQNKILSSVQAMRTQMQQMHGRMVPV

Sequence of Serine/threonine-protein kinase MRCK alpha (Homo sapiens) (Q5VT25 whole entry): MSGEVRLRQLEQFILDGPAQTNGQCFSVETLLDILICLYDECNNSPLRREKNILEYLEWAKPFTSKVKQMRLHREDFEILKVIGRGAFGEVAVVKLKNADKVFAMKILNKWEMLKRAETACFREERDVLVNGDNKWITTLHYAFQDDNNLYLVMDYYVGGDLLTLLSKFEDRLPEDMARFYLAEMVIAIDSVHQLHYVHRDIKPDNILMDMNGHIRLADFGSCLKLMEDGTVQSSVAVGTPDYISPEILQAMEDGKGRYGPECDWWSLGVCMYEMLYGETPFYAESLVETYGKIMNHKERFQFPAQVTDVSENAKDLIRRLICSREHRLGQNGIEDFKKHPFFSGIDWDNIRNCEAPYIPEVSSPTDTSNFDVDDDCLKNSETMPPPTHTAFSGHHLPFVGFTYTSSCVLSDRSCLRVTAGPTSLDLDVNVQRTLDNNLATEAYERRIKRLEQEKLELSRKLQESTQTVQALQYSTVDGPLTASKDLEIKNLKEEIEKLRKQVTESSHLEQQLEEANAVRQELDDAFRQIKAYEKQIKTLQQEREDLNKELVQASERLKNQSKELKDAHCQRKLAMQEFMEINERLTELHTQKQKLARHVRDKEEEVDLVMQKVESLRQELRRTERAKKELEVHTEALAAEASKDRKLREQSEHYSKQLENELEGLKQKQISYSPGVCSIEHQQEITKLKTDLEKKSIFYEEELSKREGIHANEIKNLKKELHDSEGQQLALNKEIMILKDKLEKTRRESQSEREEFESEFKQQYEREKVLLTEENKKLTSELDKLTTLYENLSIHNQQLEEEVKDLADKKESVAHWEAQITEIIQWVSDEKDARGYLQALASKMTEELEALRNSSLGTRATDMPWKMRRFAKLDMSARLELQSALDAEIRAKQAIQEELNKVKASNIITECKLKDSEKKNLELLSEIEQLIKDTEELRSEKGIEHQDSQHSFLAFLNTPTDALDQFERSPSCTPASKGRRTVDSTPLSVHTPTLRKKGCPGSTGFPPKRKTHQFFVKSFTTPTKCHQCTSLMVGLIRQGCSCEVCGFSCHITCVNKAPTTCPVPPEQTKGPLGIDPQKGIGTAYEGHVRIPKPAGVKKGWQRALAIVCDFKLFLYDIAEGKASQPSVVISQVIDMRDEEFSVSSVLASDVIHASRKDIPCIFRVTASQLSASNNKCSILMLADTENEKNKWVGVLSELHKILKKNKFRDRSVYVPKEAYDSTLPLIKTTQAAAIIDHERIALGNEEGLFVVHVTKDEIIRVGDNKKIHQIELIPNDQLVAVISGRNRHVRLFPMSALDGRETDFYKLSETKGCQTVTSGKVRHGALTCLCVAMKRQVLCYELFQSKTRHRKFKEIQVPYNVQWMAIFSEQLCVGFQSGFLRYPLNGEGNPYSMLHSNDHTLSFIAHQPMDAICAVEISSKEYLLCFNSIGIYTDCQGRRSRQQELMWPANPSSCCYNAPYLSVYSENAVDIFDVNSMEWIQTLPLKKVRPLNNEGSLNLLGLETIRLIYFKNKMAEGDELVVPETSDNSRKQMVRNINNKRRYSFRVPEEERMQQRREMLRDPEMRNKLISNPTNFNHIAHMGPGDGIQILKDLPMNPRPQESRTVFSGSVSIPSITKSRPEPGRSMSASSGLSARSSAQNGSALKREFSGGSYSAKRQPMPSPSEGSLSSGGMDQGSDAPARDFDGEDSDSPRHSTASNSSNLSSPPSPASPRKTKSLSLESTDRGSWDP
Sequence of AP2-associated protein kinase 1 (Q2M2I8 whole entry, looked up): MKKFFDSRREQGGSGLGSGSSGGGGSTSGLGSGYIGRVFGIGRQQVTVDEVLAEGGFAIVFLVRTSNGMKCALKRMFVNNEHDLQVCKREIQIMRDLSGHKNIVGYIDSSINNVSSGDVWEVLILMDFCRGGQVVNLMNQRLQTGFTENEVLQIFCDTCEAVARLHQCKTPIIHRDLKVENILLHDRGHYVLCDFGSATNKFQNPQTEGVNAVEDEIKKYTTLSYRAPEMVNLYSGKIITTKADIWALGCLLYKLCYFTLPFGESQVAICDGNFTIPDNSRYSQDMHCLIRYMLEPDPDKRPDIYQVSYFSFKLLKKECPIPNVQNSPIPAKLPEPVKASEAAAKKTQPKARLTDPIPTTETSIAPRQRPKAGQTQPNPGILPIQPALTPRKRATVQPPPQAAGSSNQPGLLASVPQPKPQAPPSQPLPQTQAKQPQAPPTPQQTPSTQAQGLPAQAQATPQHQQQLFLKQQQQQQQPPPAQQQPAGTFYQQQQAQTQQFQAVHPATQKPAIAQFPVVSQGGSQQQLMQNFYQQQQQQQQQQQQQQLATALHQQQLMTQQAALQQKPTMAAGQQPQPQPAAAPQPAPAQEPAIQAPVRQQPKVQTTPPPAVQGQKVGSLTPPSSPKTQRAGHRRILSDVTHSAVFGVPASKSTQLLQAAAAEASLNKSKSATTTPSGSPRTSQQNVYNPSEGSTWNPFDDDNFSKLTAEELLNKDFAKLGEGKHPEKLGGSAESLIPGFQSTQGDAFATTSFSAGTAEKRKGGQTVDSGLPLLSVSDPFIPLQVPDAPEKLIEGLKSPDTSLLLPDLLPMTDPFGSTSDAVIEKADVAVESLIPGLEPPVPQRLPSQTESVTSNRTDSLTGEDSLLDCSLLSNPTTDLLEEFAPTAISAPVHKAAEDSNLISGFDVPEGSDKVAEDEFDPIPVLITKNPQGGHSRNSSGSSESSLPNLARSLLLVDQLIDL
Sequence of Calcium/calmodulin-dependent protein kinase type II subunit delta (Homo sapiens) (Q13557 whole entry): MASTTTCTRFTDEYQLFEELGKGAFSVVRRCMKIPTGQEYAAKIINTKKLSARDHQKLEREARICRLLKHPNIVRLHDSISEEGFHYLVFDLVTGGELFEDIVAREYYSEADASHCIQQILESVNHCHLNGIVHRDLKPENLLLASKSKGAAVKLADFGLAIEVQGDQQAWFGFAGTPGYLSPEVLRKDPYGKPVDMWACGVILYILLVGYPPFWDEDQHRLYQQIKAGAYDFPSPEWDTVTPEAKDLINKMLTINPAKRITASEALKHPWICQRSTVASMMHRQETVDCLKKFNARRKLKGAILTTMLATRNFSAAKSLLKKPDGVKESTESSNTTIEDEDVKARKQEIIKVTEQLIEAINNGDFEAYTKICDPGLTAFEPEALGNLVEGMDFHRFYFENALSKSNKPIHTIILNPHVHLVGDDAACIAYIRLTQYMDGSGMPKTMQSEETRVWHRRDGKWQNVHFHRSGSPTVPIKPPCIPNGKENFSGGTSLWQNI
Sequence of Ribosomal protein S6 kinase alpha-6 (Q9UK32 whole entry, canonical isoform): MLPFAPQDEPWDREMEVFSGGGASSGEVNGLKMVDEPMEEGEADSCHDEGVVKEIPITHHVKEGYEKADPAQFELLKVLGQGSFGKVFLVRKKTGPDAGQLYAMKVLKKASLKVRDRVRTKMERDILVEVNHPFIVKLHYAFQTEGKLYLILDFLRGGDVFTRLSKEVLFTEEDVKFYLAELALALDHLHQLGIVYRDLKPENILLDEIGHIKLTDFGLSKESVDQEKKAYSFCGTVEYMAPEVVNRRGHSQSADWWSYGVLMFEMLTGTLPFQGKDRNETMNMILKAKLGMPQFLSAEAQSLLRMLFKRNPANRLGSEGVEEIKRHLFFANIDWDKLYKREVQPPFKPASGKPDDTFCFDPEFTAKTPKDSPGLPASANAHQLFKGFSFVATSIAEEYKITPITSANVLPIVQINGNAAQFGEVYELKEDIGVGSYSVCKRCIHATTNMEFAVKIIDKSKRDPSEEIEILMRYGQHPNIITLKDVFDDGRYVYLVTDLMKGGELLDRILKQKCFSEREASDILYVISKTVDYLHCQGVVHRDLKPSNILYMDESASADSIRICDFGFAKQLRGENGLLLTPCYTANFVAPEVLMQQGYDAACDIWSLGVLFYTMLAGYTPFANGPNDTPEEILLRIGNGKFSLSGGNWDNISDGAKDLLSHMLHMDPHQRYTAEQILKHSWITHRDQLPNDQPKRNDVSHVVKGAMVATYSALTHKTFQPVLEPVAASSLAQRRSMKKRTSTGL

Work on `CCc1ccccc1C(=O)Nc1n[nH]c2c(C)c(F)c(C3C(C#N)=C(C)N(C)C(C)=C3C#N)cc12` [BAY-3827] yielded a % of control [1] of 2.9%.

For `O=C(NOC[C@H](O)CO)c1ccc(F)c(F)c1Nc1ccc(I)cc1F`, the % of control [2] was 80%, the % of control [3] was 100% and the % of control [4] was 40%.

`CC[C@@H]1[C@H](F)C(=O)N[C@@H]1COc1nccc2cc(C(N)=O)c(OC)cc12` [ZIMLOVISERTIB] gave a % of inhibition [5] of 56.2%.

`CCC(=O)N1CCN(c2ccc(-n3c(=O)ccc4cnc5ccc(-c6cnc7ccccc7c6)cc5c43)cc2C(F)(F)F)CC1` showed a % of control [6] of 96%.

In the case of `CN(C)C/C=C/C(=O)Nc1ccc(C(=O)N2CCCC(Nc3ncc(Cl)c(-c4c[nH]c5ccccc45)n3)C2)cc1` (stereo not drawn), the % of control [7] is reported as 80%.

`C=CC(=O)Nc1cc(-n2c(=O)ccc3cnc4ccc(-c5ccc(NS(C)(=O)=O)cc5)cc4c32)ccc1C` showed a % of control ([8]; at 1 µM) of 93%, a % of control ([8]; at 10 µM) of 58% and a % of control ([9]; at 1 µM) of 100%. The % of control ([9]; at 10 µM) was 96%.

`O[C@H]1CC[C@H](Nc2ncc3nc(Nc4c(F)cc(F)cc4F)n([C@H]4CCOC4)c3n2)CC1` gave a % of control [10] of 76% and a % of control [11] of 87%.

`Cc1cc([C@@H](C)Nc2ccccc2C(=O)O)c2nc(N3CCOCC3)cc(=O)n2c1` [AZD-6482] was tested, and the % of control [12] was 71%.

Compound `Cc1cc(F)c(C(=O)Nc2cccc(-c3nncn3C(C)C)n2)cc1-n1cnc(C2CC2)c1` has a % of control [13] of 84%.

Compound `Cn1cc(-n2cnc3c(NCc4nc5cc(Cl)c(Cl)cc5[nH]4)nc(N4CCOCC4)nc32)cn1` has a % of inhibition [14] of -35.1%.

For `C=CC(=O)Nc1cccc(C(=O)Nc2ccc(Nc3cc(-c4[nH]c(SC)nc4C)ccn3)cc2)c1`, the % of control ([15]; at 1 µM) was 93% and the % of control ([15]; at 5 µM) was 78%.
